Measured values: patent publication US12240838B2, “Inhibiting agents for Bruton's tyrosine kinase” (BIOGEN MA INC., priority 2019, dated 2025)

Tests used:
BTK [1] = target: T1, BTK (Homo sapiens (Human), UniProt Q06187); test: In Vitro BTK Kinase Assay: BTK-POLYGAT-LS ASSAY; type: biochemical; conditions: ATP 10 μM, polyGAT 100 nM, BTK 0.25 nM, 30 minutes
Description: The purpose of the BTK in vitro assay is to determine compound potency against BTK through the measurement of IC50. […] The BTK kinase reaction was done in a black 96 well plate (costar 3694). For a typical assay, a 24 μL aliquot of a ATP/peptide master mix (final concentration; ATP 10 μM, polyGAT 100 nM) in kinase buffer (10 mM Tris-HCl pH 7.5, 10 mM MgCl2, 200 μM […], 5 mM DTT, 0.01% Triton X-100, and 0.2 mg/ml casein) is added to each well. Next, […] of a 4-fold, 40× compound titration in 100% DMSO solvent is added, followed by adding 15 μL of BTK enzyme mix in 1× kinase buffer (with a final concentration of 0.25 nM). The assay is incubated for 30 minutes before being stopped with […] of a 50 mM EDTA solution. Aliquots (5 μL) of the kinase reaction are transferred to a low volume white 384 well plate (Coming 3674), and […] of a 2× detection buffer (Invitrogen PV3574, with 4 nM Tb-PY20 antibody, Invitrogen PV3552) is added. The plate is covered and incubated for 45 minutes at room temperature. Time resolved fluorescence (TRF) on Molecular Devices M5 (332 nm excitation; 488 nm emission; 518 nm fluorescein emission) is measured.

BTK [2] = target: T1, BTK; test: In Vitro PD Assay in Human Whole Blood (pBTK assay); type: cell-based; conditions: 37° C. for 30 min, 50% inhibition of ECL signal
Description: Human heparinized venous blood was purchased from Bioreclamation, Inc. or SeraCare Life Sciences and shipped overnight. Whole blood was aliquoted into 96-well plate and “spiked” with serial dilutions of test compound in DMSO or with DMSO without drug. The final concentration of DMSO in all wells was 0.1%. The plate was incubated at 37° C. for 30 min. Lysis buffer containing protease and phosphatase inhibitors was added to the drug-containing samples and one of the DMSO-only samples (+PPi, high control), while lysis buffer containing protease inhibitors was added to the other DMSO-only samples (−PPi, low control). All of the lysed whole blood samples were subjected to the total BTK capture and phosphotyrosine detection method described in US20160311802, incorporated herein by reference.

T1 sequence (Q06187 whole entry): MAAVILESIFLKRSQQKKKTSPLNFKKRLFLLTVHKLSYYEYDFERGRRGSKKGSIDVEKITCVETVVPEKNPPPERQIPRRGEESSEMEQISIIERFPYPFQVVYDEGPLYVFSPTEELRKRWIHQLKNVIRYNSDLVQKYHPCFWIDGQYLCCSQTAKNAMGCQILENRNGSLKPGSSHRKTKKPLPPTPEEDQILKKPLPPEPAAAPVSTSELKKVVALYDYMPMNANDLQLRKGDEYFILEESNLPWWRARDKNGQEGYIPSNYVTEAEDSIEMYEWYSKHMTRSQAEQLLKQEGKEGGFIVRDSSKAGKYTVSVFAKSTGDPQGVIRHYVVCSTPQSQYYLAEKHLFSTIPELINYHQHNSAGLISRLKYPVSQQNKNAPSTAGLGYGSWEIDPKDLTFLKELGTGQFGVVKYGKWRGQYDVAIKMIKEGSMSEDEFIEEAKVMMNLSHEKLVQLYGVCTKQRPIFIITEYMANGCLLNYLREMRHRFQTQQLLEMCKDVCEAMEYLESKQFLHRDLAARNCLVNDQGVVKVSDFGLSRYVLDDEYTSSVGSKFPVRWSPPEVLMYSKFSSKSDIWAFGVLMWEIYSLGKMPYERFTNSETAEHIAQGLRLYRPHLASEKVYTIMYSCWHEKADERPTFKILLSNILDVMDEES

| SMILES | IC50 (BTK [1]) | IC50 (BTK [2]) |
| --- | --- | --- |
| Cc1cc(-c2ccnc(NC(=O)[C@@H]3C[C@@H]3F)c2)ccc1CNC(=O)c1noc(C(C)(C)C)n1 (single isomer, unassigned) [Compound 3] | ≤ 1 nM | ≤ 100 nM |
| Cc1cc(-c2ccnc(NC(=O)[C@H]3C[C@H]3F)c2)ccc1CNC(=O)c1noc(C(C)(C)C)n1 (single isomer, unassigned) [Compound 4] | ≤ 1 nM |  |
| Cc1cc(-c2ccnc(NC(=O)[C@H]3C[C@@H]3C)c2)ccc1CNC(=O)c1noc(C(C)(C)C)n1 [Compound 5, 5-(tert-butyl)-N-(2-methyl-4-(2-((1S,2S)-2-methylcyclopropane-1-carboxamido)pyridin-4-yl)benzyl)-1,2,4-oxadiazole-3-carboxamide] | ≤ 1 nM | ≤ 100 nM |
| Cc1cc(-c2ccnc(NC(=O)[C@@H]3C[C@H]3C)c2)ccc1CNC(=O)c1noc(C(C)(C)C)n1 [Compound 6, 5-(tert-butyl)-N-(2-methyl-4-(2-((1R,2R)-2-methylcyclopropane-1-carboxamido)pyridin-4-yl)benzyl)-1,2,4-oxadiazole-3-carboxamide] | ≤ 1 nM | ≤ 100 nM |
| Cc1cc(-c2cc(NC(=O)C3CC3)ncc2Cl)ccc1CNC(=O)c1noc(C(C)(C)C)n1 [Compound 7, 5-(tert-butyl)-N-(4-(5-chloro-2-(cyclopropanecarboxamido)pyridin-4-yl)-2-methylbenzyl)-1,2,4-oxadiazole-3-carboxamide] | ≤ 1 nM | 100 to 500 nM |
| CC(C)(C)c1nc(C(=O)N[C@@H]2CCN(CC(F)(F)F)Cc3cc(-c4ccnc(NC(=O)C5CC5)c4)ccc32)no1 [Compound 10, (R)-5-(tert-butyl)-N-(8-(2-(cyclopropanecarboxamido)pyridin-4-yl)-2-(2,2,2-trifluoroethyl)-2,3,4,5-tetrahydro-1H-benzo[c]azepin-5-yl)-1,2,4-oxadiazole-3-carboxamide] | ≤ 1 nM | ≤ 100 nM |
| Cc1c(CNC(=O)c2noc(C(C)(C)C)n2)ccc(-c2ccnc(NC(=O)C3CC3)c2)c1F [Compound 11, 5-(tert-butyl)-N-(4-(2-(cyclopropanecarboxamido)pyridin-4-yl)-3-fluoro-2-methylbenzyl)-1,2,4-oxadiazole-3-carboxamide] | ≤ 1 nM | ≤ 100 nM |
| Cc1cc(-c2ccnc(NC(=O)C3CC3)c2)c(F)cc1CNC(=O)c1nc(C(C)(C)C)no1 [Compound 12, 3-(tert-butyl)-N-(4-(2-(cyclopropanecarboxamido)pyridin-4-yl)-5-fluoro-2-methylbenzyl)-1,2,4-oxadiazole-5-carboxamide] | ≤ 1 nM | 100 to 500 nM |
| Cc1cc(-c2ccnc(NC(=O)C3CC3)c2)c(F)cc1CNC(=O)c1noc(C(C)(C)C)n1 [Compound 13, 5-(tert-butyl)-N-(4-(2-(cyclopropanecarboxamido)pyridin-4-yl)-5-fluoro-2-methylbenzyl)-1,2,4-oxadiazole-3-carboxamide] | ≤ 1 nM | ≤ 100 nM |
| CC(C)(C)c1nc(C(=O)NCc2ccc(-c3ccnc(NC(=O)C4CC4)c3)c(F)c2Cl)no1 [Compound 14, 5-(tert-butyl)-N-(2-chloro-4-(2-(cyclopropanecarboxamido)pyridin-4-yl)-3-fluorobenzyl)-1,2,4-oxadiazole-3-carboxamide] | ≤ 1 nM | ≤ 100 nM |
| Cc1cc(-c2ccnc(NC(=O)C3C4COCC43)c2)ccc1CNC(=O)c1noc(C(C)(C)C)n1 (centres unmarked) [Compound 23] | 1 to 10 nM |  |
| CC(C)(C)c1nc(C(=O)N[C@@H]2CCCCc3cc(-c4ccnc(NC(=O)C5CC5)c4)c(F)cc32)no1 [Compound 24, (R)-5-(tert-butyl)-N-(2-(2-(cyclopropanecarboxamido)pyridin-4-yl)-3-fluoro-6,7,8,9-tetrahydro-5H-benzo[7]annulen-5-yl)-1,2,4-oxadiazole-3-carboxamide] | ≤ 1 nM |  |
| Cc1cc(-c2ccnc(NC(=O)C3CC3C(F)(F)F)c2)ccc1CNC(=O)c1noc(C(C)(C)C)n1 (centres unmarked) [Compound 25, 5-(tert-butyl)-N-(2-methyl-4-(2-(2-(trifluoromethyl)cyclopropane-1-carboxamido)pyridin-4-yl)benzyl)-1,2,4-oxadiazole-3-carboxamide] | 1 to 10 nM |  |
| CC(C)(C)c1noc(C(=O)NCc2ccc(-c3ccnc(NC(=O)C4CC4)c3)c(F)c2C(F)F)n1 [Compound 27, 3-(tert-butyl)-N-(4-(2-(cyclopropanecarboxamido)pyridin-4-yl)-2-(difluoromethyl)-3-fluorobenzyl)-1,2,4-oxadiazole-5-carboxamide] | ≤ 1 nM |  |
| Cc1cc(-c2ccnc(NC(=O)C3CC3)c2)ccc1CNC(=O)c1nn(C(C)(C)C)cc1F [Compound 28, 1-(tert-butyl)-N-(4-(2-(cyclopropanecarboxamido)pyridin-4-yl)-2-methylbenzyl)-4-fluoro-1H-pyrazole-3-carboxamide] | ≤ 1 nM |  |
| CC(C)(C)c1nc(C(=O)N[C@@H]2CCCCc3c2ccc(-c2ccnc(NC(=O)C4CC4)c2)c3F)no1 [Compound 40, (R)-5-(tert-butyl)-N-(2-(2-(cyclopropanecarboxamido)pyridin-4-yl)-1-fluoro-6,7,8,9-tetrahydro-5H-benzo[7]annulen-5-yl)-1,2,4-oxadiazole-3-carboxamide] | ≤ 1 nM |  |
| CC(C)(C)c1noc(C(=O)N[C@@H]2CCCCc3cc(-c4ccnc(NC(=O)[C@@H]5C[C@@H]5C#N)c4)ccc32)n1 [Compound 50, 3-(tert-butyl)-N-((R)-2-(2-((1R,2S)-2-cyanocyclopropane-1-carboxamido)pyridin-4-yl)-6,7,8,9-tetrahydro-5H-benzo[7]annulen-5-yl)-1,2,4-oxadiazole-5-carboxamide] | ≤ 1 nM |  |
| CC(C)(C)c1nc(C(=O)NCc2cc(F)c(-c3ccnc(NC(=O)C4CC4)c3)cc2C(F)(F)F)no1 [Compound 62, 5-(tert-butyl)-N-(4-(2-(cyclopropanecarboxamido)pyridin-4-yl)-5-fluoro-2-(trifluoromethyl)benzyl)-1,2,4-oxadiazole-3-carboxamide] |  | 500 to 10000 nM |
| Cc1c([C@@H](C)NC(=O)c2nc(C(C)(C)C)no2)ccc(-c2ccnc(NC(=O)C3CC3)c2)c1F [Compound 66, (R)-3-(tert-butyl)-N-(1-(4-(2-(cyclopropanecarboxamido)pyridin-4-yl)-3-fluoro-2-methylphenyl)ethyl)-1,2,4-oxadiazole-5-carboxamide] | ≤ 1 nM |  |
| C[C@@H](NC(=O)c1noc(C(C)(C)C)n1)c1ccc(-c2ccnc(NC(=O)C3CC3)c2)c(F)c1Cl [Compound 74, (R)-5-(tert-butyl)-N-(1-(2-chloro-4-(2-(cyclopropanecarboxamido)pyridin-4-yl)-3-fluorophenyl)ethyl)-1,2,4-oxadiazole-3-carboxamide] | ≤ 1 nM |  |
| C[C@@H](NC(=O)c1nc(C(C)(C)C)no1)c1ccc(-c2ccnc(NC(=O)C3CC3)c2)c(F)c1Cl [Compound 75, (R)-3-(tert-butyl)-N-(1-(2-chloro-4-(2-(cyclopropanecarboxamido)pyridin-4-yl)-3-fluorophenyl)ethyl)-1,2,4-oxadiazole-5-carboxamide] | ≤ 1 nM |  |
| Cc1cc(-c2ccnc(NC(=O)C3CC3)c2)c(F)cc1[C@@H](C)NC(=O)c1noc(C(C)(C)C)n1 [Compound 85, (R)-5-(tert-butyl)-N-(1-(4-(2-(cyclopropanecarboxamido)pyridin-4-yl)-5-fluoro-2-methylphenyl)ethyl)-1,2,4-oxadiazole-3-carboxamide] | ≤ 1 nM |  |
| CC(C)(C)c1nc(C(=O)NCc2ccc(-c3ccnc(NC(=O)C4CC4)c3)c(F)c2C(F)(F)F)no1 [Compound 86, 5-(tert-butyl)-N-(4-(2-(cyclopropanecarboxamido)pyridin-4-yl)-3-fluoro-2-(trifluoromethyl)benzyl)-1,2,4-oxadiazole-3-carboxamide] | ≤ 1 nM |  |
| COc1cc(-c2ccnc(NC(=O)C3CC3)c2)ccc1CNC(=O)c1noc(C(C)(C)C)n1 [Compound 87, 5-(tert-butyl)-N-(4-(2-(cyclopropanecarboxamido)pyridin-4-yl)-2-methoxybenzyl)-1,2,4-oxadiazole-3-carboxamide] | ≤ 1 nM |  |
| CC(C)(C)c1nc(C(=O)NCc2ccc(-c3ccnc(NC(=O)C4CC4)c3)cc2C2CCC2)no1 [Compound 88, 5-(tert-butyl)-N-(2-cyclobutyl-4-(2-(cyclopropanecarboxamido)pyridin-4-yl)benzyl)-1,2,4-oxadiazole-3-carboxamide] | ≤ 1 nM |  |
| Cc1cc(-c2ccnc(NC(=O)C3CC3)c2)ccc1CNC(=O)c1cn(C(C)(C)C)cn1 [Compound 95, 1-(tert-butyl)-N-(4-(2-(cyclopropanecarboxamido)pyridin-4-yl)-2-methylbenzyl)-1H-imidazole-4-carboxamide] | 10 to 1000 nM |  |
